Measurements reported in publication PMC7790557, “Pleiotropic Properties of Amphiphilic Dihydropyridines, Dihydropyridones, and Aminovinylcarbonyl Compounds” (Oxidative Medicine and Cellular Longevity, 2020).
Like-named read-outs stand apart in the source and are kept apart here. Each block holds one molecule with its values, some of them ahead of it.

Legend:
[1] = cited from earlier work
[2] = Electrochemical oxidation potentials, cyclic voltammetry; assay type: physicochemical; conditions: glassy carbon electrode, dry acetonitrile; for Oxidation potential E^ox: Table 4, vs Ag/Ag+, 0.1 M TBABF4, tested as perchlorates; for electrooxidation potential: cyclic voltammetry
Description: A stationary glassy carbon disk electrode (d = 0.5 mm) served as the working electrode, while the counterelectrode was a Pt wire. The oxidation potentials were measured relative to a Ag/Ag^+ reference electrode. Acetonitrile was dried over P2O5 and distilled; the distillate was stored over CaH2 and redistilled just before use. Recrystallized tetrabutylammonium tetrafluoroborate (TBABF4) was used as a supporting electrolyte at 0.1 M concentration.
The electrochemical oxidation of the selected compounds studied in this work was performed by cyclic voltammetry on a stationary glassy carbon electrode in dry acetonitrile; the data is presented in Table 4. The perchlorates of the tested amphiphiles were obtained from the corresponding bromides by treating their abs. MeOH solutions with excess of conc. HClO4 according to the procedure elaborated by Turovska et al..

MH-22A (mouse hepatoma) [3] = test: Cytotoxicity, MTT assay, MH-22A; assay type: cell-based; conditions: Mus musculus, read-out: MH-22A IC50 (MTT)
Text: (§1) Reduction takes place only when mitochondrial reductase enzymes are active, and therefore, conversion is directly related to the number of viable cells which can be quantified by the absorbance of the solution (between λ = 500 and 600 nm) using a spectrophotometer.

[4] = Cytotoxicity, crystal violet (CV) assay, MH-22A; assay type: cell-based, mouse; conditions: mouse, summarises CV and MTT values, read-out: cytotoxicity towards MH-22A cells; for IC50 at 72 h: MH-22A cells (hepatoma)
Description: (§2) After incubation, the staining solution was removed. The cells were washed 4 times with water.

MH-22A (mouse hepatoma) [5] = test: Cytotoxicity, crystal violet (CV) assay, MH-22A; assay type: cell-based; conditions: Mus musculus, read-out: MH-22A IC50 (CV)
Description: as §2

in vitro [6] = assay type: cell-based; conditions: human and mouse, summarises both cell lines, CV and MTT, read-out: cytotoxicity on cancer cell lines HT-1080 and MH-22A
Description: as §2

[7] = Cytotoxicity, crystal violet (CV) assay, HT-1080; conditions: human
Description: (§3) IC50 is the compound concentration (μg/ml) at which 50% of the cells die. […] CV staining can be used to quantify the total DNA of the remaining population and thus is used to determine the number of live cells based on the concentration of the dye which remains after staining.
(§4) Tumor cell lines HT-1080 (human connective tissue fibrosarcoma, ATCC® CCL-121™) and MH-22A (mouse hepatocarcinoma, ECACC, cat. Nr. 96121721) were used.
(§5) HT-1080 and MH-22A cells were seeded in 96-well plates in Dulbecco's modified Eagle's (DMEM) medium containing 10% fetal bovine serum and 4 mM L-glutamine, without antibiotics, and cultivated for 72 h by exposure to different concentrations of compounds. Cell viability was measured using 3-(4,5-dimethylthiazol-2-yl)-2,5-diphenyltetrazolinium bromide (MTT). In brief, after incubating with compounds, the culture medium was removed and fresh medium with 0.2 mg/ml MTT was added in each well of the plate. After incubation (3 h, 37°C, 5% CO2), the medium with MTT was removed, and 200 μl DMSO was added at once to each sample. The samples were tested at 540 nm on a Tecan Infinite M1000 multiplate reader. The IC50 was calculated using the program GraphPad Prism® 3.0.
(§6) For the CV assay, cells were stained with 0.05% crystal violet (Sigma-Aldrich) in 30% methanol for 20 minutes at room temperature. After incubation, the staining solution was removed. The cells were washed 4 times with water. For dye solubilization, 200 μl of a solubilizing solution (0.1 M citrate buffer, pH 4.2 in 50% ethanol; 1 : 1 v/v) was added. The absorbance of the solution was measured using a Tecan Infinite M1000 multiplate spectrophotometer at a wavelength of 570 nm [21].

[8] = test system: HT-1080 (human lung fibrosarcoma); test: Cytotoxicity, crystal violet (CV) assay, HT-1080; conditions: Homo sapiens, HT-1080, 72 h, read-out: HT-1080 IC50 (CV)
Description: as §3, §4, §5, §6

[9] = test system: NIH3T3 (mouse embryonic fibroblast); test: Basal cytotoxicity test, Neutral Red Uptake (NRU) assay; conditions: for IC50: Mus musculus, NIH3T3, 24 h
Description: The NRU cytotoxicity assay procedure is based on the ability of viable cells to incorporate and bind neutral red, a supravital dye.
Balb/c NIH 3T3 (mouse Swiss albino embryo fibroblast, ATCC® CRL-1658™) cells (9000 cells/well) were placed into 96-well plates for 24 h in Dulbecco's modified Eagle's medium (DMEM) containing 5% fetal bovine serum. Then, the cells were exposed to the test compound over a range of seven concentrations (1000, 316, 100, 31, 10, 3, and 1 μg/ml) for 24 h. Untreated cells were used as a control. After 24 h, the medium was removed from all plates. Then, 150 μl of neutral red solution was added (0.05 mg/ml NR in DMEM 24 h preincubated at 37°C and then filtered before use through a 0.22 μm syringe filter). Plates were incubated for 3 h, and then, the cells were washed three times with PBS. The dye within viable cells was released by extraction with a mixture of acetic acid, ethanol, and water (1 : 50 : 49). The absorbance of neutral red was measured using a spectrophotometer multiplate reader (Tecan Infinite M1000) at 540 nm. The optical density (OD) was calculated using the following formula: OD (treated cells) × 100/OD (control cells). The IC50 values were calculated using the GraphPad Prism® 3.0 program.

[10] = test system: HT-1080 (human lung fibrosarcoma); test: Cytotoxicity, MTT assay, HT-1080; assay type: cell-based; conditions: Homo sapiens, read-out: HT-1080 IC50 (MTT)
Text: as §1

[11] = test system: cancer cell lines HT-1080 and MH-22A; test: in vitro; assay type: cell-based
Description: as §2

in vitro [12] = conditions: mouse
Text: Data from the in vitro tests were used for estimating the starting dose for acute oral systemic toxicity tests in the rodent. The in vivo starting dose is an estimated LD50 value calculated by inserting the in vitroIC50 value into a regression formula: log LD50 (mM/kg) = 0.439 log IC50 (mM) + 0.621 [23–25]. […] Using an alternative in vitro method allows the comparison between possibly toxic new compounds and selecting compounds for further study vastly reducing the number of animal experiments.
Additionally, the compound influence on “normal” mouse fibroblasts (NIH3T3) was estimated for the studies of structure-activity relationships and exploration of the effect of substituents.

[13] = HT-1080, Table 1, 72 h exposure
[14] = read-out: NIH3T3 IC50 (NR), Table 1, 24 h exposure
[15] = HT-1080, Table 2, 72 h exposure

SMILES: CCOC(=O)C1=C(C)NC(C)=C(C(=O)OCC)C1 [Diludin, reference compound]
antiradical activity (ARA) [1]: 40%

SMILES: CCCCCCCCCCCCOC(=O)C1=C(C[n+]2ccccc2)NC(C[n+]2ccccc2)=C(C(=O)OCCCCCCCCCCCC)C1c1ccccc1.[Br-].[Br-] [compound 10, 1,1'-((3,5-Bis((dodecyloxy)carbonyl)-4-phenyl-1,4-dihydropyridine-2,6-diyl)bis(methylene))bis(pyridin-1-ium) dibromide]
Oxidation potential E^ox [2]: 1.58 V
electrooxidation potential [2]: 1.57–1.58 V
IC50 (MH-22A (mouse hepatoma) [3]; 72 h): 3 ± 0.8 µg/mL
IC50 [4]: 3 to 6 µg/mL
IC50 (MH-22A (mouse hepatoma) [5]; 72 h): 6 ± 1 µg/mL
IC50 at 72 h (in vitro [6]): 3 to 6 µg/mL
IC50 at 72 h [7]: ~3 µg/mL
IC50 [8]: 3 ± 0.5 µg/mL
IC50 ([9]; read-out: NIH3T3 IC50 (NR)): 100 ± 6 µg/mL
IC50 ([10]; HT-1080, 72 h): 3 ± 0.3 µg/mL

SMILES: CCCCCCCCCCCCOC(=O)C1=C(C[n+]2ccc(C)cc2)NC(C[n+]2ccc(C)cc2)=C(C(=O)OCCCCCCCCCCCC)C1c1ccccc1.[Br-].[Br-] [compound 12, 1,1'-((3,5-Bis((dodecyloxy)carbonyl)-4-phenyl-1,4-dihydropyridine-2,6-diyl)bis(methylene))bis(4-methylpyridin-1-ium) dibromide]
IC50 (MH-22A (mouse hepatoma) [3]; Table 1, 72 h exposure): 29 ± 2 µg/mL
IC50 at 72 h [4]: 29 to 40 µg/mL
IC50 (MH-22A (mouse hepatoma) [5]; Table 1, 72 h exposure): 40 ± 2 µg/mL
IC50 at 72 h ([7]; HT-1080 cells (fibrosarcoma)): 5 to 10 µg/mL
IC50 [8]: 10 ± 2 µg/mL
IC50 ([9]; read-out: NIH3T3 IC50 (NR)): 79 ± 11 µg/mL
IC50 [10, 13]: 5 ± 1 µg/mL

SMILES: CCCCCCCCCCCCOC(=O)C1=C(C[n+]2cccc(C(C)=O)c2)NC(C[n+]2cccc(C(C)=O)c2)=C(C(=O)OCCCCCCCCCCCC)C1c1ccccc1.[Br-].[Br-] [compound 14, 1,1'-((3,5-Bis((dodecyloxy)carbonyl)-4-phenyl-1,4-dihydropyridine-2,6-diyl)bis(methylene))bis(3-acetylpyridin-1-ium) dibromide]
IC50 (MH-22A (mouse hepatoma) [3]; Table 1, 72 h exposure): 49 ± 9 µg/mL
IC50 at 72 h [4]: 50 to 100 µg/mL
IC50 (MH-22A (mouse hepatoma) [5]; Table 1, 72 h exposure): 100 ± 13 µg/mL
IC50 at 72 h ([7]; HT-1080 cells (fibrosarcoma)): ~3 µg/mL
IC50 [8]: 3 ± 0.4 µg/mL
toxicity to noncancerous NIH3T3 cells (in words) [9]: practically nontoxic
IC50 ([9]; read-out: NIH3T3 IC50 (NR)): 922 ± 24 µg/mL
IC50 [10, 13]: 3 ± 0.3 µg/mL

SMILES: CCCCCCCCCCCCOC(=O)C1=C(C[n+]2ccncc2)NC(C[n+]2ccncc2)=C(C(=O)OCCCCCCCCCCCC)C1c1ccccc1 [compound 16, 1,1'-((3,5-Bis((dodecyloxy)carbonyl)-4-phenyl-1,4-dihydropyridine-2,6-diyl)bis(methylne))bis(pyrazin-1-ium) dibromide]
IC50 (MH-22A (mouse hepatoma) [3]; Table 1, 72 h exposure): > 100 µg/mL
IC50 (MH-22A (mouse hepatoma) [5]; Table 1, 72 h exposure): > 100 µg/mL
cytotoxicity to cancer cell lines HT-1080 and MH-22A (in words) [11]: practically inert
IC50 [8]: > 100 µg/mL
toxicity to noncancerous NIH3T3 cells (in words) [9]: nontoxic
IC50 [9, 14]: > 1000 µg/mL
IC50 [10, 13]: > 100 µg/mL

Oxidation potential E^ox [2]: 1.63 V
electrooxidation potential [2]: 1.63 V
SMILES: CCCCCCCCCCCCOC(=O)C1=C(C[n+]2ccc(C(F)(F)F)cc2)NC(C[n+]2ccc(C(F)(F)F)cc2)=C(C(=O)OCCCCCCCCCCCC)C1c1ccccc1.[Br-].[Br-] [compound 21, 1,1'-((3,5-Bis((dodecyloxy)carbonyl)-4-phenyl-1,4-dihydropyridine-2,6-diyl)bis(methylene))bis(4-(trifluoromethyl)pyridin-1-ium) dibromide]
IC50 (MH-22A (mouse hepatoma) [3]; Table 1, 72 h exposure): 19 ± 6 µg/mL
IC50 at 72 h [4]: 19 to 49 µg/mL
IC50 (MH-22A (mouse hepatoma) [5]; Table 1, 72 h exposure): 49 ± 8 µg/mL
IC50 at 72 h ([7]; HT-1080 cells (fibrosarcoma)): 2 to 4 µg/mL
IC50 [8]: 2 ± 0.3 µg/mL
IC50 ([9]; read-out: NIH3T3 IC50 (NR)): 12 ± 4 µg/mL
IC50 [10, 13]: 4 ± 0.5 µg/mL

SMILES: O=C(OCCCCCCCCCCCC(F)(F)F)C1=C(C[n+]2ccccc2)NC(C[n+]2ccccc2)=C(C(=O)OCCCCCCCCCCCC(F)(F)F)C1c1ccccc1.[O-][Cl+3]([O-])([O-])[O-].[O-][Cl+3]([O-])([O-])[O-] [compound 22, 1,1'-((4-phenyl-3,5-bis(((12,12,12-trifluorododecyl)oxy)carbonyl)-1,4-dihydropyridine-2,6-diyl)bis(methylene))bis(pyridin-1-ium) diperchlorate]
Oxidation potential E^ox [2]: 1.57 V
IC50 (MH-22A (mouse hepatoma) [3]; Table 1, 72 h exposure): 19 ± 5 µg/mL
IC50 at 72 h [4]: 10 to 19 µg/mL
IC50 (MH-22A (mouse hepatoma) [5]; Table 1, 72 h exposure): 10 ± 1 µg/mL
IC50 at 72 h ([7]; HT-1080 cells (fibrosarcoma)): 10 to 18 µg/mL
IC50 [8]: 18 ± 5 µg/mL
IC50 [9, 14]: 16 ± 3 µg/mL
IC50 [10, 13]: 10 ± 2 µg/mL

SMILES: O=C(OCCCCCCCCCCCC(F)(F)C(F)(F)C(F)(F)C(F)(F)C(F)(F)C(F)(F)C(F)(F)C(F)(F)F)C1=C(C[n+]2ccccc2)NC(C[n+]2ccccc2)=C(C(=O)OCCCCCCCCCCCC(F)(F)C(F)(F)C(F)(F)C(F)(F)C(F)(F)C(F)(F)C(F)(F)C(F)(F)F)C1c1ccccc1 [compound 25]
cytotoxicity to cancer cell lines HT-1080 and MH-22A (in words) [11]: undetectable toxicity
toxicity to noncancerous NIH3T3 cells (in words) [9]: low toxicity

SMILES: CCCCCCCCCCCCOC(=O)c1c(C[n+]2ccccc2)nc(C[n+]2ccccc2)c(C(=O)OCCCCCCCCCCCC)c1-c1ccccc1.[Br-].[Br-] [compound 27, 1,1’-((3,5-Bis(dodecyloxycarbonyl)-4-phenylpyridine-2,6-diyl)bis(methylene))-bis(pyridin-1-ium)dibromide]
LD50 (in vitro [12]; LD50 (calculated, NIH3T3), calculated from NIH3T3 IC50): 3950 mg/kg
IC50 (MH-22A (mouse hepatoma) [3]; Table 1, 72 h exposure): 3.3 ± 0.4 µg/mL
IC50 (MH-22A (mouse hepatoma) [5]; Table 1, 72 h exposure): 3 ± 0.3 µg/mL
IC50 at 72 h (in vitro [6]; HT-1080 cells and MH-22A cells (the value covers both lines)): ~3 µg/mL
IC50 [8]: 3.2 ± 0.8 µg/mL
toxicity to noncancerous NIH3T3 cells (in words) [9]: not harmful at all
IC50 ([9]; read-out: NIH3T3 IC50 (NR)): 900 ± 42 µg/mL
IC50 [10, 13]: 3.1 ± 0.5 µg/mL

SMILES: COC(=O)C1=C(C[n+]2ccccc2)NC(=O)CC1c1ccccc1OC(F)F.[Br-] (centres unmarked) [compound 28, 1-({4-[2-(Difluoromethoxy)phenyl]-3-(methoxycarbonyl)-6-oxo-1,4,5,6-tetrahydropyridin-2-yl}methyl)pyridinium bromide]
IC50 (MH-22A (mouse hepatoma) [3]; Table 2, 72 h exposure): > 100 µg/mL
IC50 (MH-22A (mouse hepatoma) [5]; Table 2, 72 h exposure): > 100 µg/mL
cytotoxicity to cancer cell lines HT-1080 and MH-22A (in words) [11]: inert
IC50 [8]: > 100 µg/mL
IC50 ([9]; read-out: NIH3T3 IC50 (NR)): 1130 ± 85 µg/mL
IC50 [10, 15]: > 100 µg/mL

SMILES: COC(=O)C1=C(C[n+]2ccccc2)N(Cc2ccccc2)C(=O)CC1.[O-][Cl+3]([O-])([O-])[O-] [compound 29, 1-{[1-Benzyl-3-(methoxycarbonyl)-6-oxo-1,4,5,6-tetrahydropyridin-2-yl]methyl}pyridinium perchlorate]
Oxidation potential E^ox [2]: 2.35 V
electrooxidation potential [2]: 2.35 V
IC50 (MH-22A (mouse hepatoma) [3]; Table 2, 72 h exposure): > 100 µg/mL
IC50 (MH-22A (mouse hepatoma) [5]; Table 2, 72 h exposure): > 100 µg/mL
cytotoxicity to cancer cell lines HT-1080 and MH-22A (in words) [11]: inert
IC50 [8]: > 100 µg/mL
IC50 ([9]; read-out: NIH3T3 IC50 (NR), Table 2, 24 h exposure): 972 ± 27 µg/mL
IC50 [10, 15]: > 100 µg/mL

SMILES: CCCCCCCCCCCCCCCCOC(=O)/C=C(\N)C[N+](C)(C)CCCCCC [compound 43, (Z,E)-N-(2-Amino-4-(hexadecyloxy)-4-oxobut-2-en-1-yl)-N,N-dimethylhexan-1-aminium chloride]
LD50 (in vitro [12]; NIH3T3 LD50, Table 3, calculated from NIH3T3 IC50 by regression formula): 538 mg/kg
IC50 (MH-22A (mouse hepatoma) [3]; Table 3, 72 h exposure): 1 ± 0.2 µg/mL
IC50 (MH-22A (mouse hepatoma) [5]; Table 3, 72 h exposure): 2 ± 0.2 µg/mL
IC50 [8]: 3 ± 0.6 µg/mL
IC50 ([9]; read-out: NIH3T3 IC50 (NR), Table 3, 24 h exposure): 21 ± 6 µg/mL
IC50 ([10]; HT-1080, Table 3, 72 h exposure): 2 ± 0.4 µg/mL
